According to US11952611B2, “Methods and systems for detection of antibiotic resistance” (Laboratory Corporation of America Holdings, priority 2017, dated 2024):

How the values were obtained:
Format in all cases: cell-based, Staphylococcus aureus
MSSA = assay: Optimization of cefoxitin concentration (Table 2), MSSA strains
Method: Bacterial strains were serially diluted to approximately 1×10^3 CFU/mL and transferred to a 96-well plate at 135 μL per well. 15 μL of cefoxitin was added to the wells to reach a final concentration of 1.4 μg/mL, 1.6 μg/mL, 1.8 μg/mL or 2.0 μg/mL. The plate was then sealed and incubated at 37° C. for 2 hours. 10 μL of recombinant phage (1.6×10^8 pfu/mL) was added to each well. The plate was then re-sealed and incubated at 37° C. for an additional 2 hours. A master mix was made containing 15 μL 5× lysis buffer, 50 μL luciferase assay buffer, and 1 μL luciferase substrate per well. 65 μL of master mix was added to each well. Luminescence from the reactions were read on a GLOMAX® Navigator and relative luminal units (RLU) for each reaction were plotted and analyzed. RLU values three times greater than an established background RLU level for LB (>750 RLU) were considered positive. The results, shown in Table 2, indicate that the recombinant phage are capable of detecting these bacterial strains. […] Positive results are in bold.

MRSA = assay: Recombinant phage luciferase assay, oxacillin vs cefoxitin (Table 1), MRSA strains
Method: Bacterial strains were serially diluted to approximately 1×10^3 CFU/mL and transferred to a 96-well plate at 135 μL per well. 15 μL of oxacillin or cefoxitin were added to the wells to reach a final concentration of 1.0 μg/mL or 2.0 μg/mL of oxicillin or 2.0 μg/mL, 4.0 μg/mL, 8.0 μg/mL, or 10.0 μg/mL of cefoxitin. The plate was then sealed and incubated at 37° C. for 2 hours. 10 μL of recombinant phage (1.6×10^8 pfu/mL) was added to each well. The plate was then re-sealed and incubated at 37° C. for 2 hours. A master mix was made containing 15 μL 5× lysis buffer, 50 μL luciferase assay buffer, and 1 μL luciferase substrate per well. 65 μL of master mix was added to each well. Luminescence from the reactions was read on a GLOMAX® Navigator and relative luminal units (RLU) for each reaction were analyzed. RLU values three times greater than an established background RLU level for LB (>750 RLU) were considered positive. The results, shown in Table 1, indicate that the recombinant phage are capable of detecting the tested bacterial strains.

[1] = system: BAA-1720 - MRSA in co-culture with 12600 - MSSA; assay: Table 6, MRSA in co-culture with MSSA
Method: Bacterial strains were serially diluted and transferred to a 96-well plate at 135 μL per well. 15 μL of cefoxitin was added to the wells to reach a final concentration of 1.8 μg/mL. The plate was then sealed and incubated at 37° C. for 2 hours or 3 hours. 10 μL of recombinant phage (1.6×10^8 pfu/mL) was added to each well. The plate was then re-sealed and incubated at 37° C. for an additional 1 or 2 hours. A master mix was made containing 15 μL 5× lysis buffer, 50 μL luciferase assay buffer, and 1 μL luciferase substrate per well. 65 μL of master mix was added to each well. Luminescence from the reactions was read on a GLOMAX® Navigator and relative luminal units (RLU) for each reaction were plotted and analyzed. RLU values three times greater than an established background RLU level for LB (>750 RLU) were considered positive. The results, shown in Table 6, indicate that samples with MRSA (38 CFU) can be distinguished from samples containing MSSA (up to 5088 CFU) using a 3-hour antibiotic/1-hour phage incubation protocol. Positive results are in bold. In Table 6, CFU values (318 CFU and 156 CFU) were experimentally validated by direct plating.

[2] = strain 12600 MSSA, detected CFU 401
[3] = strain AR0484 MSSA, detected CFU 107
[4] = strain AR0485 MSSA, detected CFU 248
[5] = strain AR0486 MSSA, detected CFU 163
[6] = strain AR0487 MSSA, detected CFU 198
[7] = strain AR0488 MSSA, detected CFU 360
[8] = strain AR0489 MSSA, detected CFU 186
[9] = strain AR0490 MSSA, detected CFU 109
[10] = strain AR0491 MSSA, detected CFU 239
[11] = strain AR0492 MSSA, detected CFU 130
[12] = strain BAA-1721 MSSA, detected CFU 166
[13] = strain AR0463 MRSA, detected CFU 419
[14] = strain AR0465 MRSA, detected CFU 111
[15] = strain AR0472 MRSA, detected CFU 190
[16] = strain AR0476 MRSA, detected CFU 194
[17] = strain AR0481 MRSA, detected CFU 43
[18] = strain BAA-1720 MRSA, detected CFU 201
[19] = MSSA detected CFU 1272, MRSA 38
[20] = MSSA detected CFU 2544, MRSA 38
[21] = MSSA detected CFU 5088, MRSA 38
[22] = MSSA detected CFU 10176, MRSA 38

`CO[C@@]1(NC(=O)Cc2cccs2)C(=O)N2C(C(=O)O)=C(COC(N)=O)CS[C@@H]21` [Cefoxitin, cefoxitin] was tested, and the “effect on positive signal” value (MSSA; 1.8 ug/mL, most MSSA strains) was “selectively inhibit a positive signal”, the “Cefoxitin Concentration 1.4 ug/mL” value (MSSA; [2]) was 2489 RLU and the “Cefoxitin Concentration 1.6 ug/mL” value (MSSA; [2]) was 1596 RLU. The “Cefoxitin Concentration 1.8 ug/mL” value (MSSA; [2]) was 974 RLU, the “Cefoxitin Concentration 2 ug/mL” value (MSSA; [2]) was 750 RLU and the “Cefoxitin Concentration 1.4 ug/mL” value (MSSA; [3]) was 174 RLU. For the same compound, the “Cefoxitin Concentration 1.6 ug/mL” value (MSSA; [3]) was 176 RLU, the “Cefoxitin Concentration 1.8 ug/mL” value (MSSA; [3]) was 187 RLU and the “Cefoxitin Concentration 2 ug/mL” value (MSSA; [3]) was 181 RLU. The “Cefoxitin Concentration 1.4 ug/mL” value (MSSA; [4]) was 1328 RLU, the “Cefoxitin Concentration 1.6 ug/mL” value (MSSA; [4]) was 812 RLU and the “Cefoxitin Concentration 1.8 ug/mL” value (MSSA; [4]) was 655 RLU. The “Cefoxitin Concentration 2 ug/mL” value (MSSA; [4]) was 404 RLU, the “Cefoxitin Concentration 1.4 ug/mL” value (MSSA; [5]) was 4238 RLU and the “Cefoxitin Concentration 1.6 ug/mL” value (MSSA; [5]) was 1743 RLU. For the same compound, the “Cefoxitin Concentration 1.8 ug/mL” value (MSSA; [5]) was 1099 RLU, the “Cefoxitin Concentration 2 ug/mL” value (MSSA; [5]) was 794 RLU and the “Cefoxitin Concentration 1.4 ug/mL” value (MSSA; [6]) was 336 RLU. The “Cefoxitin Concentration 1.6 ug/mL” value (MSSA; [6]) was 227 RLU, the “Cefoxitin Concentration 1.8 ug/mL” value (MSSA; [6]) was 204 RLU and the “Cefoxitin Concentration 2 ug/mL” value (MSSA; [6]) was 165 RLU. For the same compound, the “Cefoxitin Concentration 1.4 ug/mL” value (MSSA; [7]) was 2274 RLU, the “Cefoxitin Concentration 1.6 ug/mL” value (MSSA; [7]) was 1149 RLU and the “Cefoxitin Concentration 1.8 ug/mL” value (MSSA; [7]) was 402 RLU. For the same compound, the “Cefoxitin Concentration 2 ug/mL” value (MSSA; [7]) was 256 RLU, the “Cefoxitin Concentration 1.4 ug/mL” value (MSSA; [8]) was 6208 RLU and the “Cefoxitin Concentration 1.6 ug/mL” value (MSSA; [8]) was 3172 RLU. The “Cefoxitin Concentration 1.8 ug/mL” value (MSSA; [8]) was 2029 RLU, the “Cefoxitin Concentration 2 ug/mL” value (MSSA; [8]) was 870 RLU and the “Cefoxitin Concentration 1.4 ug/mL” value (MSSA; [9]) was 1277 RLU. For the same compound, the “Cefoxitin Concentration 1.6 ug/mL” value (MSSA; [9]) was 598 RLU, the “Cefoxitin Concentration 1.8 ug/mL” value (MSSA; [9]) was 423 RLU and the “Cefoxitin Concentration 2 ug/mL” value (MSSA; [9]) was 258 RLU. The “Cefoxitin Concentration 1.4 ug/mL” value (MSSA; [10]) was 1438 RLU, the “Cefoxitin Concentration 1.6 ug/mL” value (MSSA; [10]) was 676 RLU and the “Cefoxitin Concentration 1.8 ug/mL” value (MSSA; [10]) was 518 RLU. For the same compound, the “Cefoxitin Concentration 2 ug/mL” value (MSSA; [10]) was 338 RLU, the “Cefoxitin Concentration 1.4 ug/mL” value (MSSA; [11]) was 1883 RLU and the “Cefoxitin Concentration 1.6 ug/mL” value (MSSA; [11]) was 839 RLU. For the same compound, the “Cefoxitin Concentration 1.8 ug/mL” value (MSSA; [11]) was 556 RLU, the “Cefoxitin Concentration 2 ug/mL” value (MSSA; [11]) was 246 RLU and the “Cefoxitin Concentration 1.4 ug/mL” value (MSSA; [12]) was 2753 RLU. The “Cefoxitin Concentration 1.6 ug/mL” value (MSSA; [12]) was 1087 RLU, the “Cefoxitin Concentration 1.8 ug/mL” value (MSSA; [12]) was 441 RLU and the “Cefoxitin Concentration 2 ug/mL” value (MSSA; [12]) was 258 RLU. The “Cefoxitin (RLU) 2 ug/mL” value (MRSA; [13]) was 1125 RLU, the “Cefoxitin (RLU) 4 ug/mL” value (MRSA; [13]) was 349 RLU and the “Cefoxitin (RLU) 8 ug/mL” value (MRSA; [13]) was 287 RLU. The “Cefoxitin (RLU) 10 ug/mL” value (MRSA; [13]) was 246 RLU, the “Cefoxitin (RLU) 2 ug/mL” value (MRSA; [14]) was 7815 RLU and the “Cefoxitin (RLU) 4 ug/mL” value (MRSA; [14]) was 5254 RLU. For the same compound, the “Cefoxitin (RLU) 8 ug/mL” value (MRSA; [14]) was 4619 RLU, the “Cefoxitin (RLU) 10 ug/mL” value (MRSA; [14]) was 2869 RLU and the “Cefoxitin (RLU) 2 ug/mL” value (MRSA; [15]) was 3538 RLU. The “Cefoxitin (RLU) 4 ug/mL” value (MRSA; [15]) was 229 RLU, the “Cefoxitin (RLU) 8 ug/mL” value (MRSA; [15]) was 239 RLU and the “Cefoxitin (RLU) 10 ug/mL” value (MRSA; [15]) was 220 RLU. The “Cefoxitin (RLU) 2 ug/mL” value (MRSA; [16]) was 1202 RLU, the “Cefoxitin (RLU) 4 ug/mL” value (MRSA; [16]) was 213 RLU and the “Cefoxitin (RLU) 8 ug/mL” value (MRSA; [16]) was 204 RLU. For the same compound, the “Cefoxitin (RLU) 10 ug/mL” value (MRSA; [16]) was 248 RLU, the “Cefoxitin (RLU) 2 ug/mL” value (MRSA; [17]) was 3499 RLU and the “Cefoxitin (RLU) 4 ug/mL” value (MRSA; [17]) was 983 RLU. For the same compound, the “Cefoxitin (RLU) 8 ug/mL” value (MRSA; [17]) was 222 RLU, the “Cefoxitin (RLU) 10 ug/mL” value (MRSA; [17]) was 250 RLU and the “Cefoxitin (RLU) 2 ug/mL” value (MRSA; [18]) was 14910 RLU. The “Cefoxitin (RLU) 4 ug/mL” value (MRSA; [18]) was 11250 RLU, the “Cefoxitin (RLU) 8 ug/mL” value (MRSA; [18]) was 7123 RLU and the “Cefoxitin (RLU) 10 ug/mL” value (MRSA; [18]) was 6431 RLU. The “2 HR AB + 2 HR Phage 1.8 ug/mL” value ([1]; MSSA detected CFU 156, MRSA 38) was 5084 RLU, the “3 HR AB + 1 HR Phage 1.8 ug/mL” value ([1]; MSSA detected CFU 156, MRSA 38) was 3976 RLU and the “2 HR AB + 2 HR Phage 1.8 ug/mL” value ([1]; MSSA detected CFU 318, MRSA 38) was 7143 RLU. For the same compound, the “3 HR AB + 1 HR Phage 1.8 ug/mL” value ([1]; MSSA detected CFU 318, MRSA 38) was 4567 RLU, the “2 HR AB + 2 HR Phage 1.8 ug/mL” value ([1]; MSSA detected CFU 636, MRSA 38) was 7217 RLU and the “3 HR AB + 1 HR Phage 1.8 ug/mL” value ([1]; MSSA detected CFU 636, MRSA 38) was 3946 RLU. For the same compound, the “2 HR AB + 2 HR Phage 1.8 ug/mL” value [1, 19] was 6263 RLU, the “3 HR AB + 1 HR Phage 1.8 ug/mL” value [1, 19] was 4930 RLU and the “2 HR AB + 2 HR Phage 1.8 ug/mL” value [1, 20] was 10730 RLU. The “3 HR AB + 1 HR Phage 1.8 ug/mL” value [1, 20] was 3749 RLU, the “2 HR AB + 2 HR Phage 1.8 ug/mL” value [1, 21] was 11400 RLU and the “3 HR AB + 1 HR Phage 1.8 ug/mL” value [1, 21] was 3548 RLU. The “2 HR AB + 2 HR Phage 1.8 ug/mL” value [1, 22] was 13260 RLU and the “3 HR AB + 1 HR Phage 1.8 ug/mL” value [1, 22] was 5347 RLU.
